Experimental data: patent US12415815B2, “Pyrido[2,3-e]oxazine derivatives as agricultural chemicals” (GLOBACHEM NV, priority 2020, dated 2025)
Converted amounts (≈) assume the structure as drawn.

Tests used:
Type in all cases: cell-based
[1] = system: Alternaria alternata; assay: Fungicidal activity screen in amended agar, 96 well plates, Alternaria alternata; settings: Medium N agar, 1,000 spores/mL, 20, 2, 0.2 and 0.02 ppm, room temperature (18° C.), assessed after 3 to 4 days, read-out: Alternaria (fungal growth vs DMSO controls, EC50 ranking)
Description: (§1) Compounds were screened in 96 well plates with 10 compounds per plate. Each compound was screened using agar amended to 20, 2, 0.2 and 0.02 ppm of the test material. Proline at 50 and 10 ppm and 0.2% DMSO were used respectively as positive and negative controls. Each test concentration and standard were tested twice on a plate.
(§2) Compounds were screened against the following three fungal pathogens—Botrytis cinerea, Alternaria alternata and Zymoseptoria tritici. The agar used in the test varied depending on the pathogen with Medium N used for B. cinerea and A. alternata and 1% potato dextrose agar for Z. tritici. For each pathogen sufficient spores were added to the appropriate agar to give 1,000 spores/mL agar of A. alternata, 5,000 spores/ml agar of B. cinerea and 10,000 spores/mL agar of Z. tritici.
(§3) A ×10 stock solution in 2% DMSO was produced for each dose i.e. 200, 20, 2 and 0.2 ppm, and 10 μl of this added to the appropriate wells on the plate. An equivalent amount of 2% DMSO and Proline stock at 500 and 100 ppm were added for the controls. To each well, 90 μl of the appropriate agar spore suspension was added to give the final well concentrations outlined in the first paragraph.
(§4) Plates were incubated at room temperature (18° C.) and assessed after: • a) 3 to 4 days A. alternata and B. cinerea • b) 7 days for Z. tritici
(§5) The amount of fungal growth in each well was compared to the DMSO controls and scored according to the following key: • A—EC50<2 ppm • B—2≤EC50<20 • C—EC50≥20 • D—No activity detected at the highest dose tested • NT—Not tested

[2] = system: Zymoseptoria tritici; assay: Fungicidal activity screen in amended agar, 96 well plates, Zymoseptoria tritici; settings: Zymoseptoria tritici, 168 h; 1% potato dextrose agar, 10,000 spores/mL, 20, 2, 0.2 and 0.02 ppm, room temperature (18° C.), assessed after 7 days; read-out: Zymoseptoria (fungal growth vs DMSO controls, EC50 ranking)
Description: as §1, §2, §3, §4, §5

[3] = system: Botrytis cinerea; assay: Fungicidal activity screen in amended agar, 96 well plates, Botrytis cinerea; settings: Medium N agar, 5,000 spores/ml, 20, 2, 0.2 and 0.02 ppm, room temperature (18° C.), assessed after 3 to 4 days, read-out: Botrytis (fungal growth vs DMSO controls, EC50 ranking)
Description: as §1, §2, §3, §4, §5

SMILES	EC50 [1] [µg/mL]	EC50 [2] [µg/mL]	EC50 [3] [µg/mL]
COc1ccnc2c(=O)n(-c3nc4ccc(Oc5cncc(Cl)c5)cc4s3)c(=S)oc12 [Example 7, 3-(6-((5-Chloropyridin-3-yl)oxy)benzo[d]thiazol-2-yl)-8-methoxy-2-thioxo-2,3-dihydro-4H-pyrido[2,3-e][1,3]oxazin-4-one]	2 to 20 (≈ 4.25 to 42.5 µM)	< 2	2 to 20 (≈ 4.25 to 42.5 µM)
COc1ccnc2c(=O)n(-c3nc4ccc(Oc5cncc(C(F)(F)F)c5)cc4s3)c(=S)oc12 [Example 8, 8-Methoxy-2-thioxo-3-(6-((5-(trifluoromethyl)pyridin-3-yl)oxy)benzo[d]thiazol-2-yl)-2,3-dihydro-4H-pyrido[2,3-e][1,3]oxazin-4-one]	2 to 20 (≈ 3.96 to 39.6 µM)	< 2	2 to 20 (≈ 3.96 to 39.6 µM)
COc1ccnc2c(=O)n(-c3nc4ccc(Oc5cccc(Cl)c5)cc4s3)c(=S)oc12 [Example 9, 3-(6-(3-Chlorophenoxy)benzo[d]thiazol-2-yl)-8-methoxy-2-thioxo-2,3-dihydro-4H-pyrido[2,3-e][1,3]oxazin-4-one]	2 to 20 (≈ 4.26 to 42.6 µM)	< 2	2 to 20 (≈ 4.26 to 42.6 µM)
COc1ccnc2c(=O)n(-c3nc4ccc(Oc5ccc(F)cc5)cc4s3)c(=S)oc12 [Example 10, 3-(6-(4-Fluorophenoxy)benzo[d]thiazol-2-yl)-8-methoxy-2-thioxo-2,3-dihydro-4H-pyrido[2,3-e][1,3]oxazin-4-one]	< 2	< 2	2 to 20 (≈ 4.41 to 44.1 µM)
COc1ccnc2c(=O)n(-c3nc4ccc(Oc5cccc(F)c5)cc4s3)c(=S)oc12 [Example 11, 3-(6-(3-Fluorophenoxy)benzo[d]thiazol-2-yl)-8-methoxy-2-thioxo-2,3-dihydro-4H-pyrido[2,3-e][1,3]oxazin-4-one]	2 to 20 (≈ 4.41 to 44.1 µM)	2 to 20 (≈ 4.41 to 44.1 µM)	2 to 20 (≈ 4.41 to 44.1 µM)
COc1ccnc2c(=O)n(-c3nc4ccc(Oc5ccccc5)cc4s3)c(=S)oc12 [Example 17, 8-Methoxy-3-(6-phenoxybenzo[d]thiazol-2-yl)-2-thioxo-2,3-dihydro-4H-pyrido[2,3-e][1,3]oxazin-4-one]	2 to 20 (≈ 4.59 to 45.9 µM)	< 2	2 to 20 (≈ 4.59 to 45.9 µM)
COc1ccnc2c(=O)n(-c3nc4ccc(Oc5ccccc5C(F)(F)F)cc4s3)c(=S)oc12 [Example 20, 8-Methoxy-2-thioxo-3-(6-(2-(trifluoromethyl)phenoxy)benzo[d]thiazol-2-yl)-2,3-dihydro-4H-pyrido[2,3-e][1,3]oxazin-4-one]	2 to 20 (≈ 3.97 to 39.7 µM)	< 2	2 to 20 (≈ 3.97 to 39.7 µM)
COc1ccnc2c(=O)n(-c3nc4ccc(Oc5cc(F)cc(F)c5)cc4s3)c(=S)oc12 [Example 21, 3-(6-(3,5-Difluorophenoxy)benzo[d]thiazol-2-yl)-8-methoxy-2-thioxo-2,3-dihydro-4H-pyrido[2,3-e][1,3]oxazin-4-one]	2 to 20 (≈ 4.24 to 42.4 µM)	< 2	2 to 20 (≈ 4.24 to 42.4 µM)
COc1ccnc2c(=O)n(-c3nc4ccc(OC5CCCCC5)cc4s3)c(=S)oc12 [Example 22, 3-(6-(Cyclohexyloxy)benzo[d]thiazol-2-yl)-8-methoxy-2-thioxo-2,3-dihydro-4H-pyrido[2,3-e][1,3]oxazin-4-one]	≥ 20	2 to 20 (≈ 4.53 to 45.3 µM)	2 to 20 (≈ 4.53 to 45.3 µM)
COc1ccnc2c(=O)n(-c3nc4ccc(OC5CCCC5)cc4s3)c(=S)oc12 [Example 23, 3-(6-(Cyclopentyloxy)benzo[d]thiazol-2-yl)-8-methoxy-2-thioxo-2,3-dihydro-4H-pyrido[2,3-e][1,3]oxazin-4-one]	≥ 20	< 2	2 to 20 (≈ 4.68 to 46.8 µM)
COc1ccnc2c(=O)n(-c3nc4ccc(Sc5ccccc5)cc4s3)c(=S)oc12 [Example 27, 8-Methoxy-3-(6-(phenylthio)benzo[d]thiazol-2-yl)-2-thioxo-2,3-dihydro-4H-pyrido[2,3-e][1,3]oxazin-4-one]	2 to 20 (≈ 4.43 to 44.3 µM)	< 2	≥ 20
COc1ccnc2c(=O)n(-c3nc4ccc(Cc5ccc(F)cc5Cl)cc4s3)c(=S)oc12 [Example 28, 3-(6-(2-Chloro-4-fluorobenzyl)benzo[d]thiazol-2-yl)-8-methoxy-2-thioxo-2,3-dihydro-4H-pyrido[2,3-e][1,3]oxazin-4-one]	2 to 20 (≈ 4.12 to 41.2 µM)	< 2	2 to 20 (≈ 4.12 to 41.2 µM)
COc1ccnc2c(=O)n(-c3nc4ccc(Cc5ccccc5Cl)cc4s3)c(=S)oc12 [Example 29, 3-(6-(2-Chlorobenzyl)benzo[d]thiazol-2-yl)-8-methoxy-2-thioxo-2,3-dihydro-4H-pyrido[2,3-e][1,3]oxazin-4-one]	≥ 20	< 2	≥ 20
COc1ccnc2c(=O)n(-c3nc4ccc(Oc5cccnc5Cl)cc4s3)c(=S)oc12 [Example 36, 3-(6-((2-chloropyridin-3-yl)oxy)benzo[d]thiazol-2-yl)-8-methoxy-2-thioxo-2,3-dihydro-4H-pyrido[2,3-e][1,3]oxazin-4-one]	≥ 20	< 2	≥ 20
COc1ccnc2c(=O)n(-c3nc4ccc(Sc5ccccc5Cl)nc4s3)c(=S)oc12 [Example 38, 3-(5-((2-chlorophenyl)thio)thiazolo [5,4-b]pyridin-2-yl)-8-methoxy-2-thioxo-2,3-dihydro-4H-pyrido[2,3-e][1,3]oxazin-4-one]	≥ 20	< 2	≥ 20
COc1ccnc2c(=O)n(-c3nc4ccc(Oc5ccccc5OC(F)(F)F)cc4s3)c(=S)oc12 [Example 39, 8-methoxy-2-thioxo-3-(6-(2-(trifluoromethoxy)phenoxy)benzo[d]thiazol-2-yl)-2,3-dihydro-4H-pyrido[2,3-e][1,3]oxazin-4-one]	≥ 20	< 2	≥ 20
COc1ccnc2c(=O)n(-c3nc4ccc(Oc5ccccc5Cl)nc4s3)c(=S)oc12 [Example 40, 3-(5-(2-chlorophenoxy)thiazolo[5,4-b]pyridin-2-yl)-8-methoxy-2-thioxo-2,3-dihydro-4H-pyrido[2,3-e][1,3] oxazin-4-one]	≥ 20	< 2	≥ 20
COc1ccnc2c(=O)n(-c3nc4ccc(Oc5cccnc5Cl)nc4s3)c(=S)oc12 [Example 41, 3-(5-((2-chloropyridin-3-yl)oxy)thiazolo[5,4-b]pyridin-2-yl)-8-methoxy-2-thioxo-2,3-dihydro-4H-pyrido[2,3-e][1,3]oxazin-4-one]	≥ 20	≥ 20	≥ 20
COc1ccccc1Oc1ccc2nc(-n3c(=S)oc4c(OC)ccnc4c3=O)sc2n1 [Example 42, 8-methoxy-3-(5-(2-methoxyphenoxy)thiazolo[5,4-b]pyridin-2-yl)-2-thioxo-2,3-dihydro-4H-pyrido[2,3-e][1,3]oxazin-4-one]	≥ 20	2 to 20 (≈ 4.29 to 42.9 µM)	≥ 20
COc1ccnc2c(=O)n(-c3nc4ccc(Sc5cccnc5Cl)cc4s3)c(=S)oc12 [Example 47, 3-(6-((2-chloropyridin-3-yl)thio)benzo[d]thiazol-2-yl)-8-methoxy-2-thioxo-2,3-dihydro-4H-pyrido[2,3-e][1,3]oxazin-4-one]	≥ 20	< 2	≥ 20
COc1ccnc2c(=O)n(-c3nc4ccc(Oc5ccc(C(F)(F)F)cc5Cl)nc4s3)c(=S)oc12 [Example 48, 3-(5-(2-chloro-4-(trifluoromethyl)phenoxy)thiazolo[5,4-b]pyridin-2-yl)-8-methoxy-2-thioxo-2,3-dihydro-4H-pyrido[2,3-e][1,3]oxazin-4-one]	≥ 20	< 2	≥ 20
CCOc1ccccc1Oc1ccc2nc(-n3c(=S)oc4c(OC)ccnc4c3=O)sc2c1 [Example 49, 3-(6-(2-ethoxyphenoxy)benzo[d]thiazol-2-yl)-8-methoxy-2-thioxo-2,3-dihydro-4H-pyrido[2,3-e][1,3]oxazin-4-one]	≥ 20	< 2	≥ 20
COc1ccnc2c(=O)n(-c3nc4ccc(Oc5ccccc5OC(F)F)cc4s3)c(=S)oc12 [Example 50, 3-(6-(2-(difluoromethoxy)phenoxy)benzo[d]thiazol-2-yl)-8-methoxy-2-thioxo-2,3-dihydro-4H-pyrido[2,3-e][1,3]oxazin-4-one]	≥ 20	< 2	≥ 20
